From patent publication US12250948B2, “Methods for the control of arthropods using near-ideal gas phase hydrogen peroxide” (Synexis LLC, priority 2013, dated 2025)
Like-named read-outs stand apart in the source and are kept apart here.

What was measured:
Brown Dog Tick = test: Laboratory chamber test of PHPG, knockdown and mortality; assay type: in vivo; settings: PHPG 0.6 ppm
Procedure: (§1) The effects of Purified Hydrogen Peroxide Gas (PHPG) on selected arthropod species is performed to determine the efficacy on controlling an arthropod using the indirect dispersion of PHPG in a space. In these experiments, the knockdown and mortality rates in mosquitoes, bed bugs, termites, ants, moths, house flies, and spiders is assessed.
(§2) Black wood ants, house flies (adult and pupae), large saturniid moths, termites (soldier and living), and cellar spiders are obtained from Carolina Supplies and shipped overnight. All organisms are fed prior to shipping from Carolina Supplies. Bed bugs and mosquitoes are sourced locally due to government shipping restrictions. The test samples are stored in a cabinet at ambient temperature and humidity until use in the study. The samples are labeled and color-coded for easy identification. In certain experiments, specimens of wild caught arthropods are used in the controlled experiments, including for example Brazilian cockroaches.
(§3) All testing is conducted in a sealed, Static Dissipative PVC chamber, Terra Universal (Fullerton, CA) Model 3305-10F: 59 inches W×24 inches D×25 inches H. With additional airlock Terra Universal Model 1680-81B 11.5 inches W×10 inches D×10.5 inches 1-1. Arthropods are placed inside transfer containers (pint size paper containers). The top and bottom diameters of these containers are 3.75 and 2.87 inches respectively with a height of 3.5 inches. All arthropods are released once the airlock is sealed. Arthropods are allowed to recover following PHPG exposure and observed in 8 oz glass Pyrex@(Tewksbury, MA) containers with sealed glass lids.
Three replicates of ten of each arthropod are subjected to PHPG. […] If at 24 hours mortality is less 90%, additional readings are taken following 48 hours of PHPG exposure. […] Time frames are recorded for each replicate. […]
If all ten arthropods are recorded as knocked down or deceased during any observation before 15 minutes have elapsed, subsequent observations are not made. […] All dead arthropods are confirmed by probing or agitation to make sure that they are unable to move (any that show movement visible to the naked eye are recorded as moribund). Arthropods that can crawl or right themselves when placed on their backs are recorded as being alive.
(§4) After the knockdown counts are complete, the arthropods are maintained in the laboratory at ambient temperature and humidity conditions with a normal 8:16 light:dark cycle for 24 hours. Additional mortality readings are taken at 48 hours if less than 90% mortality is recorded at 24 hours. A 48 hour reading depends upon control mortality remaining less than 10%. Temperature and humidity are recorded in the treatment area, and in the laboratory where the arthropods are subsequently held for the duration of the test.

Crickets = settings: PHPG 0.4 ppm
Termites = system: Termites
Procedure: as §1, §2, §3
(§5) Three replicates of ten of each arthropod are subjected to PHPG. An additional three replicates are subjected to a non PHPG producing device and serve as untreated controls. The arthropods are observed for knockdown at 0.5, 1, 2, 3, 4, 5, and 15 minutes. Mortality counts are taken after 24 hours of PHPG exposure. If at 24 hours mortality is less 90%, additional readings are taken following 48 hours of PHPG exposure. The test samples are exposed to the test environment containing PHPG until a 90% knockdown is achieved. The test samples are provided PHPG emitted from a PHPG producing device in the center of the test chamber. Time frames are recorded for each replicate. Just prior to treatment the arthropods are transferred into the transfer containers. Forty eight hours after treatment, they are removed from the treatment chamber and transferred to recovery containers and covered with screened lids for observation.
(§6) Knockdown occurs when an arthropod cannot right itself when placed on its back but is still able to move at least one body part. The arthropods are then transferred from the treatment chamber to recovery containers. Another knockdown/mortality observation is made 15 minutes later.
(§7) If all ten arthropods are recorded as knocked down or deceased during any observation before 15 minutes have elapsed, subsequent observations are not made. Mortality counts are made at 24 hours, and 48 hours or sooner (if applicable). All dead arthropods are confirmed by probing or agitation to make sure that they are unable to move (any that show movement visible to the naked eye are recorded as moribund). Arthropods that can crawl or right themselves when placed on their backs are recorded as being alive.
as §4

Fruit Flies = settings: PHPG 0.3 ppm, exposure 72 hours
Procedure: as §1, §2, §3, §5, §6, §7, §4

House Fly Pupae = settings: PHPG 0.5 ppm
Procedure: as §1, §2, §3, §5, §6, §7, §4

Carpenter Ants = settings: PHPG 1.0 ppm
Procedure: as §1, §2, §3, §5, §6, §7, §4

Cockroaches = system: Cockroaches
Procedure: as §1, §2, §3, §5, §6, §7, §4

Cellar Spiders = settings: PHPG 1.0 ppm
Procedure: as §1, §2, §3, §5, §6, §7, §4

Wolf Spiders = settings: PHPG 1.0 ppm
Procedure: as §1, §2, §3, §5, §6, §7, §4

Deer Ticks = settings: PHPG 0.6 ppm
Procedure: as §1, §2, §3, §5, §6, §7, §4

Tarantula = system: Tarantula
Procedure: as §1, §2, §3, §5, §6, §7, §4

Bedbugs = settings: PHPG 0.6 ppm
Procedure: as §1, §2, §3, §5, §6, §7, §4

Mosquitoes = settings: PHPG 0.2 ppm
[1] = system: arthropods including crickets, ants, spiders, and house flies; test: Real world test of PHPG in 1400 sq ft Pool House; settings: after 27 hours
Excerpt: All PHPG concentration readings take place with Draeger products. A Pac III, Polytron 7000 or Draeger Tubes are utilized in all tests, generally according to manufacturer's instructions. […] Most commonly, Draeger Tubes are used after clipping on both ends and placement in a ACCURO™ Pump. Per manufacturer instructions, the tubes are pumped 100 times and the level of PHPG determined by observing the color change in the crystals.
Two PHPG generating devices were placed in the space for an initial cleansing and to establish levels.

Stink Bugs = settings: PHPG 0.3 ppm
Yellow Jackets and Nest = settings: PHPG 0.3 ppm
House Flies = settings: PHPG 0.2 ppm

## OO [PHPG, Purified Hydrogen Peroxide Gas]
Brown Dog Tick
  Attempt to Flee?: Yes
Brown Dog Tick; exposure 3 hours
  Percent Killed: 70%
Brown Dog Tick; exposure 60 hours
  Percent Killed: 100%
Brown Dog Tick; until they succumbed
  Observations: All ticks searched for an exit
Crickets; exposure 21 hours, garden house
  Percent Killed: 100%
Crickets; tried to exit through HVAC vents
  Attempt to Flee?: Yes
Termites; PHPG 0.1 ppm, cell continues 'Then went dormant'
  Attempt to Flee?: Yes,
Termites; PHPG 0.1 ppm, exposure 24 hours
  Percent Killed: 100%
Termites; very low exposure (PHPG 0.1 ppm), sought shelter
  Observations: went dormant. Larger
Fruit Flies
  Percent Killed: 100%
House Fly Pupae; 100 pupae expected to hatch within 3 days, within one week
  Observations: hatching: within 3 days. Did not hatch
House Fly Pupae; House Fly Pupae, exposure 7 days
  Percent Killed: 100%
Carpenter Ants
  Attempt to Flee?: Yes
  Observations: order of death: exit. Smallest ants died first.
Carpenter Ants; exposure 24 Hours
  Percent Killed: 15%
Carpenter Ants; when unable to flee
  Observations: ants collected in areas where fresh air was seeping into the chamber and remained inactive: When unable 50% collected
Cockroaches; Cockroaches, PHPG 0.6 ppm
  Attempt to Flee?: No
Cockroaches; Cockroaches, PHPG 0.6 ppm, exposure 24 Hours
  Percent Killed: 0%
Cockroaches; Cockroaches, low level of PHPG (0.6 ppm), did not react to the gas
  Observations: Appeared resistant at low
Cockroaches; adult cockroaches, PHPG levels up to 0.6 ppm for 24 hours
  Resistance to PHPG: resistant
Cellar Spiders
  Attempt to Flee?: Yes
  Observations: smallest spiders died within: one hour. Larger spiders
Cellar Spiders; exposure 24 Hours
  Percent Killed: 33%
Wolf Spiders
  Attempt to Flee?: Yes
  Observations: Very susceptible; and
Wolf Spiders; exposure 1 hour
  Percent Killed: 100%
Deer Ticks
  Attempt to Flee?: Yes
Deer Ticks; exposure 3 hours
  Percent Killed: 70%
Deer Ticks; exposure 60 hours
  Percent Killed: 100%
Deer Ticks; until they succumbed
  Observations: All ticks searched for an exit
Tarantula; Tarantula, PHPG 0.6 ppm
  Attempt to Flee?: No
Tarantula; Tarantula, PHPG 0.6 ppm, exposure 24 hours
  Percent Killed: 0%
Tarantula; Tarantula, PHPG 0.6 ppm, did not react to the gas
  Observations: Appeared resistant. Did not
Tarantula; tarantula spiders, PHPG levels up to 0.6 ppm for 24 hours
  Resistance to PHPG: resistant
Bedbugs; Bedbug nymphs hatched from immature eggs
  Observations: nymphs: Nymphs died in seconds.
Bedbugs; Bedbugs
  Observations: all bedbugs reacted within: fifteen seconds.
  Observations: final outcome: All died over time.
Bedbugs; Bedbugs, exposure 3 hours
  Percent Killed: 50%
Bedbugs; Bedbugs, exposure 60 hours
  Percent Killed: 100%
Bedbugs; Bedbugs, cell continues 'Went Dormant'
  Attempt to Flee?: No,
Mosquitoes
  Attempt to Flee?: Yes
Mosquitoes; exposure 2 hours
  Percent Killed: 100%
Lice and nits; Lice and nits, PHPG 0.2 ppm, exposure 2 days
  Percent Killed: 100%
Lice and nits; Lice and nits, PHPG 0.2 ppm, within two days
  Observations: bedding and other exposed items: items fully treated within two
Lice and nits; child subject, from initiation of PHPG treatment
  Elimination of all signs of lice: lice free within two days
[1]; PHPG 0.4 ppm
  Live insects observed: No live insects were observed
[1]; two PHPG generating devices, PHPG 0.4 ppm at 27 hours
  Number of arthropods confirmed dead: 109
Stink Bugs
  Attempt to Flee?: Yes
Stink Bugs; exposure 24 hours
  Percent Killed: 100%
Yellow Jackets and Nest; 1 day, nest was hatching
  Observations: unhatched yellow jackets in the nest: jackets in the nest died.
Yellow Jackets and Nest; Yellow Jackets and Nest, exposure 1 day
  Percent Killed: 100%
Yellow Jackets and Nest; Yellow Jackets
  Attempt to Flee?: Yes
House Flies
  Attempt to Flee?: Yes
  Observations: final outcome: All died within day
  Observations: first deaths within: one hour
House Flies; exposure 24 hours
  Percent Killed: 100%
